According to the supplement of paper PMC10307832:

Key:
Test in all cases: relative viability (nuclei count vs DMSO), 5 days (fraction); higher = more cells survive
AZD1208 + Palbociclib = compound: N[C@@H]1CCCN(c2c(/C=C3\SC(=O)NC3=O)cccc2-c2ccccc2)C1 [AZD1208] + CC(=O)c1c(C)c2cnc(Nc3ccc(N4CCNCC4)cn3)nc2n(C2CCCC2)c1=O [Palbociclib] (partner 0.5 µM)
Method in brief: (§1)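 Relative viability divides the nuclei count in treated wells by that in vehicle wells. Lung cancer cell lines were seeded in 1536-well plates, dosed by pin tool the next day, and fixed and stained after 5 days in one step with final 0.05% Triton X-100, 1% formaldehyde and 1 ug/ml Hoechst. Dosing was a single drug or a fixed anchor-drug dose plus five library-drug doses (not always all listed) in √10 steps, and values are medians of duplicate plates imaged at 4×.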

XMD14-99 + Palbociclib = compound: CN1CCN(CC1)C2=CC(=C(C=C2)NC3=NC(=C(S3)C(=O)C4=C(C=CC=C4Cl)Cl)N)OC [XMD14-99] + CC(=O)c1c(C)c2cnc(Nc3ccc(N4CCNCC4)cn3)nc2n(C2CCCC2)c1=O [Palbociclib] (partner 0.5 µM)
Method in brief: as §1

AZD1208 + Pictilisib = compound: N[C@@H]1CCCN(c2c(/C=C3\SC(=O)NC3=O)cccc2-c2ccccc2)C1 [AZD1208] + CS(=O)(=O)N1CCN(Cc2cc3nc(-c4cccc5[nH]ncc45)nc(N4CCOCC4)c3s2)CC1 [Pictilisib] (partner 1 µM)
Method in brief: as §1

AZD1208 + Trametinib = compound: N[C@@H]1CCCN(c2c(/C=C3\SC(=O)NC3=O)cccc2-c2ccccc2)C1 [AZD1208] + CC(=O)Nc1cccc(-n2c(=O)n(C3CC3)c(=O)c3c(Nc4ccc(I)cc4F)n(C)c(=O)c(C)c32)c1 [Trametinib] (partner 0.02 µM)
Method in brief: as §1

Cell Line | relative viability (AZD1208 + Palbociclib; first compound 0.08 µM) | relative viability (AZD1208 + Palbociclib; first compound 0.253 µM) | relative viability (AZD1208 + Palbociclib; first compound 0.8 µM) | relative viability (AZD1208 + Palbociclib; first compound 2.53 µM) | relative viability (AZD1208 + Palbociclib; first compound 8 µM) | relative viability (XMD14-99 + Palbociclib; first compound 0.08 µM) | relative viability (XMD14-99 + Palbociclib; first compound 0.8 µM) | relative viability (XMD14-99 + Palbociclib; first compound 2.53 µM) | relative viability (XMD14-99 + Palbociclib; first compound 8 µM) | relative viability (AZD1208 + Pictilisib; first compound 0.08 µM) | relative viability (AZD1208 + Pictilisib; first compound 0.253 µM) | relative viability (AZD1208 + Pictilisib; first compound 0.8 µM) | relative viability (AZD1208 + Pictilisib; first compound 2.53 µM) | relative viability (AZD1208 + Pictilisib; first compound 8 µM) | relative viability (AZD1208 + Trametinib; first compound 0.08 µM) | relative viability (AZD1208 + Trametinib; first compound 0.253 µM) | relative viability (AZD1208 + Trametinib; first compound 0.8 µM) | relative viability (AZD1208 + Trametinib; first compound 2.53 µM) | relative viability (AZD1208 + Trametinib; first compound 8 µM)
HCC-15 | 0.748 | 0.872 | 0.68 | 0.711 | 0.657 | 0.733 | 0.765 | 0.733 | 0.629 | 0.611 | 0.679 | 0.524 | 0.548 | 0.515 | 0.381 | 0.338 | 0.326 | 0.312 | 0.296
HCC-44 | 1.01 | 0.941 | 0.976 | 0.968 | 1.02 | 1.03 | 0.969 | 1 | 1.01 | 0.617 | 0.463 | 0.372 | 0.46 | 0.458 | 1.1 | 1.12 | 1.02 | 1.1 | 1.05
HCC-78 | 0.464 | 0.427 | 0.466 | 0.446 | 0.452 | 0.487 | 0.54 | 0.557 | 0.445 | 0.205 | 0.206 | 0.198 | 0.195 | 0.205 | 0.689 | 0.806 | 0.702 | 0.834 | 0.919
HCC-366 | 0.408 | 0.482 | 0.376 | 0.404 | 0.245 | 0.452 | 0.383 | 0.346 | 0.306 | 0.112 | 0.0978 | 0.123 | 0.092 | 0.0878 | 0.328 | 0.327 | 0.297 | 0.286 | 0.221
HCC-827 | 0.493 | 0.411 | 0.405 | 0.481 | 0.509 | 0.506 | 0.406 | 0.451 | 0.446 | 1.07 | 1.15 | 0.992 | 0.95 | 0.784 | 0.557 | 0.516 | 0.536 | 0.524 | 0.398
HOP-62 | 0.483 | 0.503 | 0.431 | 0.439 | 0.469 | 0.435 | 0.41 | 0.538 | 0.443 | 0.658 | 0.638 | 0.658 | 0.455 | 0.717 | 0.372 | 0.381 | 0.379 | 0.377 | 0.322
IA-LM |  |  |  |  |  |  |  |  |  | 0.256 | 0.326 | 0.292 | 0.231 | 0.308 |  |  |  |  | 
LC-2-ad | 0.591 | 0.52 | 0.528 | 0.501 | 0.5 | 0.525 | 0.446 | 0.466 | 0.487 | 0.397 | 0.446 | 0.405 | 0.357 | 0.417 | 0.92 | 0.917 | 0.664 | 0.933 | 0.935
LCLC-97TM1 | 0.197 | 0.203 | 0.199 | 0.216 | 0.19 | 0.197 | 0.239 | 0.321 | 0.203 | 0.164 | 0.175 |  | 0.121 | 0.145 | 0.21 | 0.172 | 0.137 | 0.183 | 0.162
LCLC-103H | 0.494 | 0.417 | 0.52 | 0.462 | 0.434 | 0.487 | 0.491 | 0.421 | 0.481 | 0.568 | 0.614 | 0.485 | 0.455 | 0.448 | 0.63 | 0.651 | 0.683 | 0.686 | 0.681
LK-2 | 0.58 | 0.486 |  | 0.294 | 0.266 | 0.572 | 0.804 | 0.655 | 0.611 | 0.373 | 0.349 | 0.29 | 0.383 | 0.266 | 0.574 | 0.502 | 0.511 | 0.445 | 0.474
NCI-H522 | 0.915 | 1.09 | 0.896 | 0.942 | 0.76 | 0.858 | 1.06 | 0.906 | 1.05 |  |  |  |  |  | 0.686 | 0.663 | 0.55 | 0.635 | 0.677
NCI-H596 |  |  |  |  |  |  |  |  |  | 0.388 | 0.349 | 0.366 | 0.348 | 0.328 | 0.759 | 0.905 | 0.79 | 0.654 | 0.446
NCI-H1299 |  |  |  |  |  |  |  |  |  | 0.731 | 0.725 | 0.818 | 0.653 | 0.562 |  |  |  |  | 
NCI-H1563 |  |  |  |  |  |  |  |  |  | 0.566 | 0.545 | 0.672 | 0.635 | 0.629 |  |  |  |  | 
NCI-H1648 | 0.277 | 0.255 | 0.244 | 0.227 | 0.294 | 0.261 | 0.267 | 0.268 | 0.289 |  |  |  |  |  | 0.588 | 0.441 | 0.435 | 0.402 | 0.497
NCI-H1703 |  |  |  |  |  |  |  |  |  | 0.225 | 0.242 | 0.238 | 0.214 | 0.198 |  |  |  |  | 
NCI-H2342 | 0.494 | 0.456 | 0.494 | 0.548 | 0.456 | 0.564 | 0.614 | 0.576 | 0.544 |  |  |  |  |  | 0.803 | 0.806 | 0.781 | 0.678 | 0.637
SW 900 | 0.524 | 0.49 | 0.497 | 0.571 | 0.511 | 0.57 | 0.567 | 0.514 | 0.359 |  |  |  |  |  | 0.721 | 0.941 | 0.697 | 0.641 | 0.708
